Format in all cases: binding
Test [1] has as its target T1, CXCR3 (Homo sapiens, UniProt P49682).
T1 construct: purchased Promega (in-house HiBiT-GPCR construct library, NanoBRET)
T1 sequence (P49682 1-368): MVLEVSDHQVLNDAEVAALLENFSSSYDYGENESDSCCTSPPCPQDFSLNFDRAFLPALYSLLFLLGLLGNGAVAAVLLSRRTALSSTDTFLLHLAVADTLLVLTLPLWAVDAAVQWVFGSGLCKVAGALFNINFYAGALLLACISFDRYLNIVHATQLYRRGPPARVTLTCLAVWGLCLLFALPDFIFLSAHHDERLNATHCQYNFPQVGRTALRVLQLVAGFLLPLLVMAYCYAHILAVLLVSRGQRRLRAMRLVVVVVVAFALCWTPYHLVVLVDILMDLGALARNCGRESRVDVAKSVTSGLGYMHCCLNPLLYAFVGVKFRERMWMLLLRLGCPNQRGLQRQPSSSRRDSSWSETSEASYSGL
Description: NanoBRET screen HiBiT-CXCR3 in HEK293. The following applies: CXCR3. In short, it runs like this:
(§1)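 Each tracer was tested at 1 μM and 0.1 μM on HEK293 cells expressing HiBiT-GPCR, in parallel with wells containing 20 μM excess parental compound. After 1.5 h, LgBiT complementation enabled BRET measurement (450 nm/600 nm).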
(In general: BRET reads energy transfer from a luciferase to a nearby fluorophore.)

The target in test [2] is T2, NPBWR2 (Homo sapiens, UniProt P48146).
T2 construct: purchased Promega (in-house HiBiT-GPCR construct library, NanoBRET)
Description: NanoBRET screen HiBiT-NPBWR2 in HEK293. The note with it: NPBWR2. A digest of the protocol:
as §1

For test [3], the target named is T3, HCRTR2 (Homo sapiens, UniProt O43614).
T3 construct: purchased Promega (in-house HiBiT-GPCR construct library, NanoBRET)
T3 sequence (O43614 1-444): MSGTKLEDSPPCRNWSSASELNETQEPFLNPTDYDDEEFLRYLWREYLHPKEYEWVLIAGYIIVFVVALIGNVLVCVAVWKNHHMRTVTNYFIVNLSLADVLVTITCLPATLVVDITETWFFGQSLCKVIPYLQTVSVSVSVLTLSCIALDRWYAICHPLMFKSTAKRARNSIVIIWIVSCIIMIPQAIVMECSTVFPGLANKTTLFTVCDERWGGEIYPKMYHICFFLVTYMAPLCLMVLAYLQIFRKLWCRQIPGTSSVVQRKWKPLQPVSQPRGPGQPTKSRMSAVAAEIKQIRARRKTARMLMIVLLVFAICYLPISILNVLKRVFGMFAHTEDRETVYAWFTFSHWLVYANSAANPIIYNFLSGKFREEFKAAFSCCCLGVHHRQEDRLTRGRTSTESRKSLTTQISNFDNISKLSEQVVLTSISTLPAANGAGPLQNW
Description: NanoBRET screen HiBiT-HCRTR2 in HEK293. The note with it: HCRTR2. A digest of the protocol:
as §1

Test [4] deals with T4, HTR4 (Homo sapiens, UniProt Q13639).
T4 construct: purchased Promega (in-house HiBiT-GPCR construct library, NanoBRET)
Description: NanoBRET screen HiBiT-HTR4 in HEK293. The note with it: HTR4. A digest of the protocol: as §1

In test [5] the target is T5, GCGR (Homo sapiens, UniProt P47871).
T5 construct: purchased Promega (in-house HiBiT-GPCR construct library, NanoBRET)
Description: NanoBRET screen HiBiT-GCGR in HEK293. The note with it: GCGR. In short, it runs like this: as §1

For test [6], the target named is T6, OPRK1 (Homo sapiens, UniProt P41145).
T6 construct: purchased Promega (in-house HiBiT-GPCR construct library, NanoBRET)
Description: NanoBRET screen HiBiT-OPRK1 in HEK293. The following applies: OPRK1. In short, it runs like this: as §1

Each structure is given as a SMILES string.

These results are taken from paper PMC8151276, “An Integrated Approach toward NanoBRET Tracers for Analysis of GPCR Ligand Engagement” (Molecules, 2021).

T4 sequence (Q13639 whole entry): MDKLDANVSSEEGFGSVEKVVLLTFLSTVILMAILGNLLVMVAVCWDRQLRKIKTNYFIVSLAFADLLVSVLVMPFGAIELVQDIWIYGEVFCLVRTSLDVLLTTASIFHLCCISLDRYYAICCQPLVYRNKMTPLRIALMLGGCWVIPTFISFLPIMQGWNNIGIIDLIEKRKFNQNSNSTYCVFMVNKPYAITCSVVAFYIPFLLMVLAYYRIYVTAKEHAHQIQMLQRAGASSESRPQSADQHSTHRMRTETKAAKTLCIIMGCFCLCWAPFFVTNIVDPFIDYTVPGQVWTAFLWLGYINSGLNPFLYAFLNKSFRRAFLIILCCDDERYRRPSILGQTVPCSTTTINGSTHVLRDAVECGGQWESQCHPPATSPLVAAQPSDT
T5 sequence (P47871 26-477): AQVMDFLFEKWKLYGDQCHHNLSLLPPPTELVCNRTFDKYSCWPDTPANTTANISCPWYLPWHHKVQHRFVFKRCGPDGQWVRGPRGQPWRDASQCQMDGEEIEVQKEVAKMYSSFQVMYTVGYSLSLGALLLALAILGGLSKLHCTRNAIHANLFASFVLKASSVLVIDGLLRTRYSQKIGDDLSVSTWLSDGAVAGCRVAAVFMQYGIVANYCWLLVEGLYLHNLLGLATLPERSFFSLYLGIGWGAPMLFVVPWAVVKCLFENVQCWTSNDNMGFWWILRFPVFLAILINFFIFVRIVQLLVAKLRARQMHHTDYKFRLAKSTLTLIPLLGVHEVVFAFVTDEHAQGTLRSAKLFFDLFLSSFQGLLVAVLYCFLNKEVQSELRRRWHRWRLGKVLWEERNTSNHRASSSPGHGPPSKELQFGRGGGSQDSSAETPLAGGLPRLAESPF
T2 sequence (P48146 whole entry): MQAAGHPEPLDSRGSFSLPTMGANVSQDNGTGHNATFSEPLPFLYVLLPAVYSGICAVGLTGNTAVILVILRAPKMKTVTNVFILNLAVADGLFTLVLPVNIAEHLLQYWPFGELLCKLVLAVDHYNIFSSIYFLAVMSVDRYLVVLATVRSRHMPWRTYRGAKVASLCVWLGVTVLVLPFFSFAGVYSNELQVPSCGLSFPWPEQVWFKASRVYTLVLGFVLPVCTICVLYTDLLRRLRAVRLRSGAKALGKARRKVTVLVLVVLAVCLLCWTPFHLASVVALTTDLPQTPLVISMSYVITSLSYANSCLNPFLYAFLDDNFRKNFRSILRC
T6 sequence (P41145 whole entry): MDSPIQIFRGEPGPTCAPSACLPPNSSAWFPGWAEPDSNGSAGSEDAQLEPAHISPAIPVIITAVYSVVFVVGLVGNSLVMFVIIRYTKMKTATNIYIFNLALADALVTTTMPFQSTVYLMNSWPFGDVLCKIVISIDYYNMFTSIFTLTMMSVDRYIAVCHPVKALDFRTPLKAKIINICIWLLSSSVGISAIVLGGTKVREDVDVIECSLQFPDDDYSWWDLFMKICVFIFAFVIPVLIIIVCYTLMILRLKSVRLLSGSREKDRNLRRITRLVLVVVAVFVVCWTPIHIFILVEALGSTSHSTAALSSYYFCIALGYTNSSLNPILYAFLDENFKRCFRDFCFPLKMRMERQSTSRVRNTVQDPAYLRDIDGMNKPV

With `CCCn1c(=O)c2[nH]c(-c3ccc(OCC(=O)NCCNC(=O)CCOCCNC(=O)c4ccc(CNC(=O)CCc5ccc6n5[B-](F)(F)[N+]5=C(c7ccc[nH]7)C=CC5=C6)cc4)cc3)nc2n(CCC)c1=O` [XAC-3-NB590], the “NanoBRET Fold Response” value is reported as 0.93 in test [1] (tracer 0.1μM); 1.60 in test [1] (tracer 1μM); 1.01 in test [2] (tracer 0.1μM); 0.99 in test [2] (tracer 1μM); 1.06 in test [3] (tracer 0.1μM); 0.97 in test [3] (tracer 1μM). The “NanoBRET Fold Response” value in test [4] (tracer 0.1μM) stood at 1.03; in test [4] (tracer 1μM), 1.09; in test [5] (tracer 0.1μM), 1.03; in test [5] (tracer 1μM), 0.96; in test [6] (tracer 0.1μM), 0.97; in test [6] (tracer 1μM), 1.34.

In the case of `CCOC(=O)c1cc(C#N)c(N2CCC(C(=O)NS(=O)(=O)Cc3ccccc3/C=C/C(=O)NCCNC(=O)CCc3ccc4n3[B-](F)(F)[N+]3=C(c5ccc[nH]5)C=CC3=C4)CC2)nc1C` [AZD1283-1-NB590], the “NanoBRET Fold Response” value in test [1] (0.1μM) is on record as 0.98; in test [1] (1μM), 1.17; in test [2] (0.1μM), 0.95; in test [2] (1μM), 0.99; in test [3] (0.1μM), 1.01; in test [3] (1μM), 1.01. Further, the “NanoBRET Fold Response” value in test [4] (0.1μM) stood at 1.01; in test [4] (1μM) it was 1.00; in test [5] (0.1μM) it was 1.05; in test [5] (1μM), 1.12; in test [6] (0.1μM), 0.98; in test [6] (1μM) it was 0.99.
